1 compound from US10752591B2, “18-20 member bi-polycyclic compounds” (Haro Pharmaceutical Inc., priority 2014, dated 2020) can be followed below.

Test [1] relates to purified rat liver HDAC. As to the kind of experiment: purified rat liver HDAC inhibition. Type of test: biochemical. The settings on record: relative to compound 17. Here is the method:
The effect of compounds on the enzymatic activity of purified recombinant human HDAC-1, -2, -3, -6, and -8 activity and of purified rat liver HDAC was examined by measuring the deacetylation of synthetic peptides in various preparations of HDACs. HDAC assays were performed using a two-step enzymatic reaction where enzyme activity is correlated to the release of […] (AMC). AMC fluorescence is measured in a fluorescent plate reading using λex380 nm and λen440 nm.
The reaction was allowed to proceed for 40 min at 37° C., after which developer solution (0.5% trypsin, 10 μM trichostatin A (TSA)) was added to obtain a final concentration of 0.1% trypsin, 2 μM TSA. After 30 minutes at room temperature, the amount of free fluorogenic AMC was measured as described above.

The test system of test [2] is C2Cl2 cells. As to the kind of experiment: myoblast fusion in long term C2Cl2 cultures (MHC immunocytochemistry). The test is classed as cell-based. The settings on record: long-term culture, suboptimal RPMI media with 2% horse serum. Here is the method:
The effect of compounds on myoblast fusion was examined in C2Cl2 cells maintained in RPMI media supplemented with 2% horse serum. C2Cl2 myoblastic cells where purchased from the American Type Culture Collection (ATCC) and maintained undifferentiated in RPMI media (Corning) supplemented with 2 mM L-Alanine-L-Glutamine (ATCC) and 1 mM pyruvate (Corning). Undifferentiated cells where maintained below 70% confluence. For long term cultures and compound treatment, cells where plated at high density CellBIND Culture Dishes (corning 3294, 3296, 3337) and in RPMI supplemented with 2% Horse Serum (Gibco) and 2 mM L-Alanine-L-Glutamine (ATCC) and 1 mM pyruvate (Corning). Compounds were dissolved in DMSO at 1000 time the final concentration and diluted 1-in-1000 in the media covering the cells. Media and compounds were changed daily. For immunocytochemistry, cells were fixed in 2% PFA in HBSS for 10 minutes and left in HBSS at 4° under humidified atmosphere and processed for immunocytochemistry. For myosin heavy chain detection (MHC), cells were first incubated in 100 ul-1 ml 0.15 M Glycine in DPBS for 10 minutes, rinse with DPBS. 100 ul-1 ml 0.5% Triton-X in DPBS was added for 10 minutes, rinsed with DPBS, and followed by incubation with 100 ul blocking agent (10% goat serum in DPBS) for 30 min at room temperature. MF20 primary antibody in 10% goat serum in DPBS was added at 1/60 dilution for 30 min at room temperature and rinsed three times with 100 ul DPBS. IgG2b goat anti mouse secondary antibody (Jackson Immuno-Research) was added at 1:1000 in 10% goat serum in DPBS for exactly 30 min at room temperature then rinsed 3 times with 100 ul DPBS. A final rinse in H2O was performed and cells were covered with two drops of Elvanol and cover gently with cover slip and allowed to dry in the dark for 24-48 hours.

For the compound `CC1(C)CCC(C)(C)c2cc(-c3cc4cc(C(=O)NO)ccc4[nH]3)ccc21` [Compound 13], the “times more potent than compound 17 in inhibition of purified rat hepatic HDAC” value in test [1] is reported as “seventy”. In test [2], the “fusion of single cells into multinucleated C2Cl2 myotubes” value is on record as “enhances the fusion”.
